Measurements from publication PMC10050424, “Structural basis of the substrate recognition and inhibition mechanism of Plasmodium falciparum nucleoside transporter PfENT1” (Nature Communications, 2023).

Tests used:
PfENT1 R291A = target: T1, PfENT1 R291A (Plasmodium falciparum, UniProt Q8IDM6, R291A); assay: Inosine uptake assay, yeast expressing PfENT1 R291A; format: cell-based; conditions: Fig. 3d, construct R291A
T1 construct: expressed in transfected cells; host or cells: S. cerevisiae BY4741, FUI1 deleted, PfENT1 mutant knock-in under the TEF1 promoter
T1 sequence (Q8IDM6 whole entry R291A): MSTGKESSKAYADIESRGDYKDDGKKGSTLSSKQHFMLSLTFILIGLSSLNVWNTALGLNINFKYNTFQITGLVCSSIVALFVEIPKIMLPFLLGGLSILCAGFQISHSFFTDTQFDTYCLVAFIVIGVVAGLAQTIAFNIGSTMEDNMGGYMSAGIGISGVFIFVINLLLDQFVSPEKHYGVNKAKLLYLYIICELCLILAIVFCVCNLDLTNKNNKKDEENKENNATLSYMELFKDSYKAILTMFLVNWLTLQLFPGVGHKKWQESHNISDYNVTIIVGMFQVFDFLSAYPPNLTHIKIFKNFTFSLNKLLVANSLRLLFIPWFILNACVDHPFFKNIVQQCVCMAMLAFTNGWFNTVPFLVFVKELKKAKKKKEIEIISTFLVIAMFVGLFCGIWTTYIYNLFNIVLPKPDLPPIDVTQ
Text: (§1) Codon-optimized PfENT1 (for expression in yeast) was synthesized by Sangon Biotech. The carboxyl terminus of PfENT1 was HA-tagged through PCR. The TEF1p promoter and PGK1t terminator were amplified from BY4741 genomic DNA. Overlap PCR was applied to generate the gene overexpression cassette of PfENT1 (TEF1p promoter-PfENT1-PGK1t terminator). The two 600-bp homologous arms corresponding to the upstream and downstream regions of the FUI1 gene were amplified from BY4741 genomic DNA. The gene cassette of the ‘TEF1p promoter-PfENT1-PGK1t terminator’ together with the two homologous arms was cloned into the PUC19 plasmid through Gibson assembly, generating the final plasmid PUC19: PfENT1. PfENT1 mutations were generated using point mutation and verified by Sanger sequencing. The spacer targeting the FUI1 gene (5ʹ-[…]-3ʹ) was cloned into the pCas-BsaI plasmid to generate the pCas-FUI1 plasmid as described previously. […]
(§2) Cells were grown overnight in YPD medium to mid-log phase and harvested by centrifugation at 3000 × g for 5 min. […] After washing by vacuum filtration with 2 ml ice-cold 2% glucose, the radioactivity retained on the filter was incubated with 1 mL of ULTIMA GOLD scintillation fluid (Perkin Elmer, 77-15311). Counts were measured using a liquid scintillation analyzer (Perkin Elmer, Tri-Carb 5110TR). […]

PfENT1 W53A = target: T2, PfENT1 W53A (Plasmodium falciparum, UniProt Q8IDM6, W53A); assay: Inosine uptake assay, yeast expressing PfENT1 W53A; format: cell-based; conditions: Fig. 3d, construct W53A
T2 construct: expressed in transfected cells; host or cells: S. cerevisiae BY4741, FUI1 deleted, PfENT1 mutant knock-in under the TEF1 promoter
T2 sequence (Q8IDM6 whole entry W53A): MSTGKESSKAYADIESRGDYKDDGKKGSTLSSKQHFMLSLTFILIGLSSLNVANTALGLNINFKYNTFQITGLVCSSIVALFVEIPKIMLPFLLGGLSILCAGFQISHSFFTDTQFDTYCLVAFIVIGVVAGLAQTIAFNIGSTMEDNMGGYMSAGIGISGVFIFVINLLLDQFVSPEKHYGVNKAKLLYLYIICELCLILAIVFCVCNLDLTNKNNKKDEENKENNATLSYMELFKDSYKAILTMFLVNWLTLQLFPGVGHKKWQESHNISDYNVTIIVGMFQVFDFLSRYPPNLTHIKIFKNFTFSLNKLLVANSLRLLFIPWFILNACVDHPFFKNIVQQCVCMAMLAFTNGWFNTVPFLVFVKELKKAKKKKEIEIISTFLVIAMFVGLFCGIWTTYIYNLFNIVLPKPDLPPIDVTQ
Text: as §1, §2

PfENT1 mutant Q135A = target: T3, PfENT1 mutant Q135A (Plasmodium falciparum, UniProt Q8IDM6, Q135A); assay: ITC binding to PfENT1 mutant Q135A; conditions: Fig. 3c
T3 construct: 10xHis (N); made in house; host or cells: Sf9 insect cells (baculovirus)
T3 sequence (Q8IDM6 whole entry Q135A): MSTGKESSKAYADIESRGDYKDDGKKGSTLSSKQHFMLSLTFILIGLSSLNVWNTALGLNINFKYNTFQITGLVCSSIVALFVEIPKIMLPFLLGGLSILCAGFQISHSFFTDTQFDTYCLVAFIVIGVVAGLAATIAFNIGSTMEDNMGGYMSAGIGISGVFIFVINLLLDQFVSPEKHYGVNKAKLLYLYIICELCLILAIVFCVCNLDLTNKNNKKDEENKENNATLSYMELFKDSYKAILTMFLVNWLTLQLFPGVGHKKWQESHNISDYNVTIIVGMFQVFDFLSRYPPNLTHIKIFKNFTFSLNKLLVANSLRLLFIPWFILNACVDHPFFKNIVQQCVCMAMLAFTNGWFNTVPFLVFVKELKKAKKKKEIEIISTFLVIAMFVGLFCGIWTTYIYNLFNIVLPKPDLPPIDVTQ
Experimental: (§3) For the in vitro binding assay, Sf9 cells were solubilized in lysis buffer containing 2% (w/v) n-dodecyl-β-D-maltopyranoside (DDM, Anatrace) and protease inhibitor cocktail (0.8 μM aprotinin, 2 μM pepstatin, and 5 μg/ml leupeptin) at 4 °C for 2 h. The soluble supernatant was collected via centrifugation and incubated with Ni-NTA resin (QIAGEN) at 4 °C for 1 h. The resin was washed and eluted using lysis buffer containing 0.05% (w/v) DDM and 30 mM/300 mM imidazole. The protein was further purified by size-exclusion chromatography (Superdex 200 Increase 10/300; GE Healthcare) in buffer containing 25 mM MES (pH 6.0), 150 mM NaCl, and 0.05% (w/v) DDM. The peak fractions were pooled and concentrated to 10~50 μM for the nucleoside-binding assay.
(§4) The binding affinity between wild-type and mutant PfENT1 with nucleosides and GSK4 was measured using a Micro-Cal ITC200 (Malvern). All proteins were prepared in 25 mM MES (pH 6.0), 150 mM NaCl, and 0.05% (w/v) DDM. Nucleosides (5~10 mM) and GSK4 (100-200 μM) dissolved in the same buffer were titrated against 20–50 μM PfENT1 proteins at 25 °C. PEAQ-ITC analysis software (MicroCal) was employed to analyze the data. All titrations were repeated three times.

PfENT1 mutant D287A = target: T4, PfENT1 mutant D287A (Plasmodium falciparum, UniProt Q8IDM6, D287A); assay: ITC binding to PfENT1 mutant D287A; conditions: Fig. 3c
T4 construct: 10xHis (N); made in house; host or cells: Sf9 insect cells (baculovirus)
T4 sequence (Q8IDM6 1-422 D287A): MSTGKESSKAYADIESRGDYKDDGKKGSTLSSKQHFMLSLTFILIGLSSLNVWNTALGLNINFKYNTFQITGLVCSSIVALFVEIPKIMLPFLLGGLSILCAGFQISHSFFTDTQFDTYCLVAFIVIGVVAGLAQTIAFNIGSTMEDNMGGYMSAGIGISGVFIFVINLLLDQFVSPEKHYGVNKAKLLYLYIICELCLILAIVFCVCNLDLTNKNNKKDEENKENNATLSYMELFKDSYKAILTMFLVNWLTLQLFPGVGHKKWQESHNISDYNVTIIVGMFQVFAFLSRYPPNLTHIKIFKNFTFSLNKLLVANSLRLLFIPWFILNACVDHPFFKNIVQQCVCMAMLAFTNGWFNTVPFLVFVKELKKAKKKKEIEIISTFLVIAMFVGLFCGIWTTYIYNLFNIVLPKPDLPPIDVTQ
Experimental: as §3, §4

SMILES: OC[C@H]1O[C@@H](n2cnc3c(O)ncnc32)[C@H](O)[C@@H]1O [Inosine, inosine]
- Uptake of [3H]-inosine (Percentage of PfENT1 WT) (PfENT1 R291A): lost the transport activity
- Uptake of [3H]-inosine (Percentage of PfENT1 WT) (PfENT1 W53A): abolished the transport activity
- binding affinity (Kd) (PfENT1 mutant Q135A): complete abolishment
- binding affinity (Kd) (PfENT1 mutant D287A): completely lost inosine binding
